Measurements: patent US12357598B2, “Treatment of neurodevelopmental disorders” (THE REGENTS OF THE UNIVERSITY OF CALIFORNIA, priority 2018, dated 2025)

Target: T1, sEH (Homo sapiens, UniProt P34913)
T1 sequence (P34913 1-555): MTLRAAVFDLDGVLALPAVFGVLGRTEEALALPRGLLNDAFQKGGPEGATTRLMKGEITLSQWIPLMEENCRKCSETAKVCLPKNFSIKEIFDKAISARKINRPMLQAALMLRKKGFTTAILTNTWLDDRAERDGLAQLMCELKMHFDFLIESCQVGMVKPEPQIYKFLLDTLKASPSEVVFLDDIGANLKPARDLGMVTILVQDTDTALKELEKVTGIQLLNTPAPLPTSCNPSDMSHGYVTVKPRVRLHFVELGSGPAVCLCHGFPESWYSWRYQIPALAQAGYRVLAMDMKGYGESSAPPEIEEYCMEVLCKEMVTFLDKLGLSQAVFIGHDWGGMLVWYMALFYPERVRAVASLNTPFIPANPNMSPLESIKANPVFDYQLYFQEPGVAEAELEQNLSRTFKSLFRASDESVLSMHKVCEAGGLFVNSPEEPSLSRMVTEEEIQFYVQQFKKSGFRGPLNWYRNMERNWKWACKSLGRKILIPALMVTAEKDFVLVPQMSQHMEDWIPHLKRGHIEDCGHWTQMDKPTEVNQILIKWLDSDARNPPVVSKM
Assay: Testing of ureas and lipid alkoxides as sEH inhibitors
Type: biochemical
Excerpt: (Both the 1- and the 2-adamantyl ureas have been tested and have about the same high activity as an inhibitor of sEH. Thus, isomers of adamantyl dodecyl urea are preferred inhibitors. It is further expected that N, N′-dodecyl-cyclohexyl urea (DCU), and other inhibitors of sEH, and particularly dodecanoic acid ester derivatives of urea, are suitable for use in the methods. Preferred inhibitors include without limitation:
U.S. Pat. No. 5,955,496 (the '496 patent) also sets forth a number of sEH inhibitors which can be used in the methods. One category of these inhibitors comprises inhibitors that mimic the substrate for the enzyme. The lipid alkoxides (e.g., the 9-methoxide of stearic acid) are an exemplar of this group of inhibitors.

**Q.** How did the “activity as an inhibitor of sEH” value turn out when `CCCCCCCCCCCCNC(=O)NC12CC3CC(CC(C3)C1)C2` [ADU, N-Adamantyl-N′-dodecyl urea] was run?
**A.** particularly high activity
